# Earlier results as cited in publication PMC9411704, “Assessment of the Carcinogenic Potential of Pretomanid in Transgenic Tg.rasH2 Mice” (International Journal of Toxicology, 2022).
# Design: method as in PMID 32130813
# Settings: 200 mg/day, clinical study NCT02333799; cited from earlier work
structure (smiles),measurement,value
"O=[N+]([O-])c1cn2c(n1)OC[C@@H](OCc1ccc(OC(F)(F)F)cc1)C2 [Pretomanid, (6S)-2-nitro-6-{[4-(trifluoromethoxy)benzyl]oxy}-6,7-dihydro-5H-imidazo[2,1-b][1,3]oxazine]",Human AUC0-24,50900 ng·h/mL
